The values below come from US12202835B2, “Substituted aromatic ring-linked dioxinoquinazolines and dioxinoquinolines as kinase inhibitors” (BEIJING SCITECH-MQ PHARMACEUTICALS LIMITED, priority 2018, dated 2025).

The target of one assay is TRKA kinase (Homo sapiens (Human), UniProt P04629). Kind of assay: Assay of small molecular compounds for inhibiting the activity of TRKA kinase (LANCE TR-FRET). It is filed as biochemical. In a few lines:
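TRKA (supplied as 2 nM 2× solution) was pre-reacted with compounds for 5 min at room temperature before a 4× ULight-TK peptide/ATP mix (400 nM/40 μM) started the 60-min dark reaction at 1% DMSO. After stop and 60-min detection, TR-FRET was read.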
For orientation: In TR-FRET formats the signal depends on donor and acceptor labels being close together.

Another assay deals with Ba/F3 LMNA-NTRK1 cells. Kind of assay: Assay for inhibiting the proliferation of Ba/F3 LMNA-NTRK1 cells (CCK-8). It is filed as cell-based. The method in brief:
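Viability was read as absorbance at 450 nm following 1–2 h CCK-8 incubation at 37 °C, relative to control and blank wells.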

Another assay deals with VEGFR-2 kinase (Homo sapiens (Human), UniProt P35968). Kind of assay: Assay of small molecular compounds for inhibiting the activity of VEGFR-2 kinase (LANCE TR-FRET). The conditions noted are these: read-out: VEGFR2 IC50. Format: biochemical. In a few lines: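 LANCE TR-FRET with human VEGFR-2 (2× stock 0.5 nM) preincubated 30 min with compound (final 2500 to 0.042 nM, 11-point 3-fold), then ULight-JAK-1 (Tyr1023) peptide/ATP added (4× stocks 200 nM/40 μM). Reaction 60 min room temperature, 4% DMSO; IC50 from inhibition-rate curve.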
Sequence of VEGFR-2 kinase (P35968 20-1356): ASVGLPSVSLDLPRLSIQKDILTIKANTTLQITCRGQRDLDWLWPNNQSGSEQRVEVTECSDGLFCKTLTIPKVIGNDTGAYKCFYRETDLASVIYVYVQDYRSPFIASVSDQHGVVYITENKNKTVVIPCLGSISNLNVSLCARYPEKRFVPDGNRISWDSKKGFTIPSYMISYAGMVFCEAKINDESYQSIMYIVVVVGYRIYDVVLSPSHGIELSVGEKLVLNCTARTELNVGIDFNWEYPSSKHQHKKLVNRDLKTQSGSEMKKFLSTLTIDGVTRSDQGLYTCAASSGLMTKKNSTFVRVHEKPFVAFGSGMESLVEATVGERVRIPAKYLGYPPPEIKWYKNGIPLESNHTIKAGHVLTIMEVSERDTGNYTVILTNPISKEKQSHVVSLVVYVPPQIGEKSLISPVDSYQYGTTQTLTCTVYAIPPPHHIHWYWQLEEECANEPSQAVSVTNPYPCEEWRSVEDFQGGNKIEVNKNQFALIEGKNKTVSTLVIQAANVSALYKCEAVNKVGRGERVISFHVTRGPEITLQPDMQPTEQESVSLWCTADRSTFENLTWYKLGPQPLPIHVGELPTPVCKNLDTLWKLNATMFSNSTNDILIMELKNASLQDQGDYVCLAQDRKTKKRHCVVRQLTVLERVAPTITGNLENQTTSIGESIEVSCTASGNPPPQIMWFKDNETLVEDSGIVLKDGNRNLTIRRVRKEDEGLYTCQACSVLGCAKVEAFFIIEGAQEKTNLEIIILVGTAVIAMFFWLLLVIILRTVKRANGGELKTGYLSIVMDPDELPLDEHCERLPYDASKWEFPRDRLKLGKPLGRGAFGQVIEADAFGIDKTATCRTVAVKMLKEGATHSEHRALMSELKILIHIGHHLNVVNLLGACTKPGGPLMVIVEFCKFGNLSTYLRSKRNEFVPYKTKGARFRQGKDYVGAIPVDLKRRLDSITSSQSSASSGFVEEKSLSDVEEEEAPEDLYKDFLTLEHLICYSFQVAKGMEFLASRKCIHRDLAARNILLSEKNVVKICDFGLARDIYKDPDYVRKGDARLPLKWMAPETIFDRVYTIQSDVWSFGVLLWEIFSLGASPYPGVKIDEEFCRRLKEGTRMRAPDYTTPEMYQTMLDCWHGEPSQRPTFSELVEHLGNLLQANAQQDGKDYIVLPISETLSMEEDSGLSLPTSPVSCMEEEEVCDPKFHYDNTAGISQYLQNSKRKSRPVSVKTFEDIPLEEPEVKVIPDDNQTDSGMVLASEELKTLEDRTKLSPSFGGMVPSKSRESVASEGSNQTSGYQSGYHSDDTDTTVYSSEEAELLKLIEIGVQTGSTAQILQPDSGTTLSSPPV

Like-named read-outs stand apart in the source and are kept apart here.

Sequence of TRKA kinase (P04629 33-796): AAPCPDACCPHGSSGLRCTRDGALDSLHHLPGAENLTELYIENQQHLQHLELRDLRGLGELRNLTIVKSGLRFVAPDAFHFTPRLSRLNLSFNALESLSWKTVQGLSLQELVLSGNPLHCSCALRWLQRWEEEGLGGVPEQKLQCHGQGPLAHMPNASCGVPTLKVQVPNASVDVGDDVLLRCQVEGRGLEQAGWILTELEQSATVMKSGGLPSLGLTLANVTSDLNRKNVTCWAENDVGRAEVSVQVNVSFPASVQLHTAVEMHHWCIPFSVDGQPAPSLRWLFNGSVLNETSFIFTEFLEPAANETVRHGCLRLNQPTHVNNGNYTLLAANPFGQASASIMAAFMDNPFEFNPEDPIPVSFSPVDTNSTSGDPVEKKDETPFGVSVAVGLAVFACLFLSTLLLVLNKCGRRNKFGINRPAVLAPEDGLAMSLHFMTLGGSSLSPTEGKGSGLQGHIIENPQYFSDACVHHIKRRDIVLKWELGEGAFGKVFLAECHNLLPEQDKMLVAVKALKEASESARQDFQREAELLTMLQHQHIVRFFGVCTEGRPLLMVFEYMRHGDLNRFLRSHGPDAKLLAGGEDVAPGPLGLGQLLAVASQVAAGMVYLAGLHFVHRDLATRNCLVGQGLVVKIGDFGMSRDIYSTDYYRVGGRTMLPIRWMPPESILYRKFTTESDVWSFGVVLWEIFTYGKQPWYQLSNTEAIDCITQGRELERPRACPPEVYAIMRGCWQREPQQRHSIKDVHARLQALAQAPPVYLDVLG

`CCOc1ccn(-c2ccc(F)cc2)c(=O)c1C(=O)Nc1ccc(Oc2ncnc3cc(OCCCN4CCOCC4)c4c(c23)OCCO4)c(F)c1` [Example 6, N-(3-fluoro-4-((5-(3-morpholinopropoxy)-2,3-dihydro-[1,4]dioxino[2,3-f]quinazolin-10-yl)oxy)phenyl)-1-(4-fluorophenyl)-4-ethoxy-2-oxo-1,2-dihydropyridine-3-carboxamide]: the half-maximal inhibitory concentration (IC50) on TRKA kinase was under 50 nM; in the assay on Ba/F3 LMNA-NTRK1 cells (Mus musculus, BaF3) it was under 50 nM; on VEGFR-2 kinase it was 50 to 500 nM.
For the compound `COc1cc2nccc(Oc3ccc(NC(=O)c4cn(C)c(=O)n(-c5ccc(F)cc5)c4=O)cc3F)c2c2c1OCCO2` [Example 13, N-(3-fluoro-4-((5-methoxy-2,3-dihydro-[1,4]dioxino[2,3-f]quinolin-10-yl)oxy)phenyl)-3-(4-fluorophenyl)-1-methyl-2,4-dioxo-1,2,3,4-tetrahydropyrimidine-5-carboxamide], the IC50 against TRKA kinase was under 50 nM; in the assay on Ba/F3 LMNA-NTRK1 cells (Mus musculus, BaF3), under 50 nM; at VEGFR-2 kinase it was 500 to 5000 nM.
As for `Cn1cc(C(=O)Nc2ccc(Oc3ccnc4cc(OCCCN5CCOCC5)c5c(c34)OCCO5)c(F)c2)c(=O)n(-c2ccc(F)cc2)c1=O` [Example 15, N-(3-fluoro-4-((5-(3-morpholinopropoxy)-2,3-dihydro-[1,4]dioxino[2,3-f]quinolin-10-yl)oxy)phenyl)-3-(4-fluorophenyl)-1-methyl-2,4-dioxo-1,2,3,4-tetrahydropyrimidine-5-carboxamide], the IC50 against TRKA kinase is under 50 nM; with Ba/F3 LMNA-NTRK1 cells (Mus musculus, BaF3), under 50 nM; at VEGFR-2 kinase it was 50 to 500 nM.
With `COc1cc2nccc(Oc3ccc(NC(=O)c4cccn(-c5ccc(F)cc5)c4=O)cc3F)c2c2c1OCCO2` [Example 17, N-(3-fluoro-4-((5-methoxy-2,3-dihydro-[1,4]dioxino[2,3-f]quinolin-10-yl)oxy)phenyl)-1-(4-fluorophenyl)-2-oxo-1,2-dihydropyridine-3-carboxamide], the half-maximal inhibitory concentration (IC50) on TRKA kinase is under 50 nM; in the assay with Ba/F3 LMNA-NTRK1 cells (Mus musculus, BaF3) it was under 50 nM; on VEGFR-2 kinase, at most 50 nM.
In the case of `COc1cc2nccc(Oc3ccc(NC(=O)c4c(OC)ccn(-c5ccc(F)cc5)c4=O)cc3F)c2c2c1OCCO2` [Example 18, N-(3-fluoro-4-((5-methoxy-2,3-dihydro-[1,4]dioxino[2,3-f]quinolin-10-yl)oxy)phenyl)-1-(4-fluorophenyl)-4-methoxy-2-oxo-1,2-dihydropyridine-3-carboxamide], the half-inhibitory concentration (IC50) on TRKA kinase was under 50 nM; with Ba/F3 LMNA-NTRK1 cells (Mus musculus, BaF3), under 50 nM; on VEGFR-2 kinase it was at most 50 nM.
Turning to `CCOc1ccn(-c2ccc(F)cc2)c(=O)c1C(=O)Nc1ccc(Oc2ccnc3cc(OC)c4c(c23)OCCO4)c(F)c1` [Example 19, N-(3-fluoro-4-((5-methoxy-2,3-dihydro-[1,4]dioxino[2,3-f]quinolin-10-yl)oxy)phenyl)-1-(4-fluorophenyl)-4-ethoxy-2-oxo-1,2-dihydropyridine-3-carboxamide], the IC50 is under 50 nM against TRKA kinase; under 50 nM in the assay on Ba/F3 LMNA-NTRK1 cells (Mus musculus, BaF3); at most 50 nM at VEGFR-2 kinase.
Consider `COc1ccn(-c2ccc(F)cc2)c(=O)c1C(=O)Nc1ccc(Oc2ccnc3cc(OCCCN4CCOCC4)c4c(c23)OCCO4)c(F)c1` [Example 21, N-(3-fluoro-4-((5-(3-morpholinopropoxy)-2,3-dihydro-[1,4]dioxino[2,3-f]quinolin-10-yl)oxy)phenyl)-1-(4-fluorophenyl)-4-methoxy-2-oxo-1,2-dihydropyridine-3-carboxamide], for which the IC50 on TRKA kinase is under 50 nM; in the assay on Ba/F3 LMNA-NTRK1 cells (Mus musculus, BaF3), under 50 nM; on VEGFR-2 kinase, at most 50 nM.
For `CCOc1ccn(-c2ccc(F)cc2)c(=O)c1C(=O)Nc1ccc(Oc2ccnc3cc(OCCCN4CCOCC4)c4c(c23)OCCO4)c(F)c1` [Example 22, N-(3-fluoro-4-((5-(3-morpholinopropoxy)-2,3-dihydro-[1,4]dioxino[2,3-f]quinolin-10-yl)oxy)phenyl)-1-(4-fluorophenyl)-4-ethoxy-2-oxo-1,2-dihydropyridine-3-carboxamide], the IC50 against TRKA kinase is under 50 nM; with Ba/F3 LMNA-NTRK1 cells (Mus musculus, BaF3), under 50 nM; at VEGFR-2 kinase it was at most 50 nM.
For the compound `COc1cn(-c2ccc(F)cc2C)nc1C(=O)Nc1ccc(Oc2ccnc3cc(OCCCN4CCOCC4)c4c(c23)OCCO4)c(F)c1` [Example 27, 1-(4-fluoro-2-methylphenyl)-N-(3-fluoro-4-((5-(3-morpholinopropoxy)-2,3-dihydro-[1,4]dioxino[2,3-f]quinolin-10-yl)oxy)phenyl)-4-methoxy-1H-pyrazole-3-carboxamide], the IC50 was under 50 nM against TRKA kinase; under 50 nM in the assay on Ba/F3 LMNA-NTRK1 cells (Mus musculus, BaF3); at most 50 nM at VEGFR-2 kinase.
Consider `COc1cc2ncnc(Oc3ccc(NC(=O)c4cn(C)c(=O)n(-c5ccc(F)cc5)c4=O)cc3F)c2c2c1OCCO2` [Example 29, N-(3-fluoro-4-((5-methoxy-2,3-dihydro-[1,4]dioxino[2,3-f]quinazolin-10-yl)oxy)phenyl)-3-(4-fluorophenyl)-1-methyl-2,4-dioxo-1,2,3,4-tetrahydropyrimidine-5-carboxamide], for which the IC50 at TRKA kinase was under 50 nM; in the assay with Ba/F3 LMNA-NTRK1 cells (Mus musculus, BaF3), under 50 nM; at VEGFR-2 kinase it was 500 to 5000 nM.
On to `Cn1cc(C(=O)Nc2ccc(Oc3ncnc4cc(OCCCN5CCOCC5)c5c(c34)OCCO5)c(F)c2)c(=O)n(-c2ccc(F)cc2)c1=O` [Example 30, N-(3-fluoro-4-((5-(3-morpholinopropoxy)-2,3-dihydro-[1,4]dioxino[2,3-f]quinazolin-10-yl)oxy)phenyl)-3-(4-fluorophenyl)-1-methyl-2,4-dioxo-1,2,3,4-tetrahydropyrimidine-5-carboxamide], for which the concentration for half-maximal inhibition (IC50) on TRKA kinase is under 50 nM; in the assay with Ba/F3 LMNA-NTRK1 cells (Mus musculus, BaF3) it was under 50 nM; on VEGFR-2 kinase, at most 50 nM.
Turning to `O=C(Nc1ccc(Oc2ccnc3cc(OCCCN4CCCCC4)c4c(c23)OCCO4)c(F)c1)c1cccn(-c2ccc(F)cc2)c1=O` [Example 31, N-(3-fluoro-4-((5-(3-(piperidin-1-yl)propoxy)-2,3-dihydro-[1,4]dioxino[2,3-f]quinolin-10-yl)oxy)phenyl)-1-(4-fluorophenyl)-2-oxo-1,2-dihydropyridine-3-carboxamide], the IC50 against TRKA kinase is under 50 nM; in the assay on Ba/F3 LMNA-NTRK1 cells it was under 50 nM; at VEGFR-2 kinase, at most 50 nM.
Turning to `COc1ccn(-c2ccc(F)cc2)c(=O)c1C(=O)Nc1ccc(Oc2ccnc3cc(OCCCN4CCCCC4)c4c(c23)OCCO4)c(F)c1` [Example 32, N-(3-fluoro-4-((5-(3-(piperidin-1-yl)propoxy)-2,3-dihydro-[1,4]dioxino[2,3-f]quinolin-10-yl)oxy)phenyl)-1-(4-fluorophenyl)-4-methoxy-2-oxo-1,2-dihydropyridine-3-carboxamide], the 50% inhibitory concentration (IC50) is under 50 nM against TRKA kinase; under 50 nM in the assay on Ba/F3 LMNA-NTRK1 cells (Mus musculus, BaF3); at most 50 nM at VEGFR-2 kinase.
Regarding `CCOc1ccn(-c2ccc(F)cc2)c(=O)c1C(=O)Nc1ccc(Oc2ccnc3cc(OCCCN4CCCCC4)c4c(c23)OCCO4)c(F)c1` [Example 33, N-(3-fluoro-4-((5-(3-(piperidin-1-yl)propoxy)-2,3-dihydro-[1,4]dioxino[2,3-f]quinolin-10-yl)oxy)phenyl)-1-(4-fluorophenyl)-4-ethoxy-2-oxo-1,2-dihydropyridine-3-carboxamide], the half-inhibitory concentration (IC50) was under 50 nM against TRKA kinase; under 50 nM in the assay with Ba/F3 LMNA-NTRK1 cells (Mus musculus, BaF3); at most 50 nM at VEGFR-2 kinase.
Turning to `COCCOc1cc2nccc(Oc3ccc(NC(=O)c4cccn(-c5ccc(F)cc5)c4=O)cc3F)c2c2c1OCCO2` [Example 34, N-(3-fluoro-4-((5-(2-methoxyethoxy)-2,3-dihydro-[1,4]dioxino[2,3-f]quinolin-10-yl)oxy)phenyl)-1-(4-fluorophenyl)-2-oxo-1,2-dihydropyridine-3-carboxamide], the IC50 was under 50 nM at TRKA kinase; under 50 nM in the assay on Ba/F3 LMNA-NTRK1 cells (Mus musculus, BaF3); at most 50 nM on VEGFR-2 kinase.
On to `COCCOc1cc2nccc(Oc3ccc(NC(=O)c4c(OC)ccn(-c5ccc(F)cc5)c4=O)cc3F)c2c2c1OCCO2` [Example 35, N-(3-fluoro-4-((5-(2-methoxyethoxy)-2,3-dihydro-[1,4]dioxino[2,3-f]quinolin-10-yl)oxy)phenyl)-1-(4-fluorophenyl)-4-methoxy-2-oxo-1,2-dihydropyridine-3-carboxamide], for which the IC50 against TRKA kinase is under 50 nM; with Ba/F3 LMNA-NTRK1 cells (Mus musculus, BaF3) it was under 50 nM; at VEGFR-2 kinase, at most 50 nM.
`CCOc1ccn(-c2ccc(F)cc2)c(=O)c1C(=O)Nc1ccc(Oc2ccnc3cc(OCCOC)c4c(c23)OCCO4)c(F)c1` [Example 36, N-(3-fluoro-4-((5-(2-methoxyethoxy)-2,3-dihydro-[1,4]dioxino[2,3-f]quinolin-10-yl)oxy)phenyl)-1-(4-fluorophenyl)-4-ethoxy-2-oxo-1,2-dihydropyridine-3-carboxamide]: the half-inhibitory concentration (IC50) against TRKA kinase is under 50 nM; in the assay with Ba/F3 LMNA-NTRK1 cells (Mus musculus, BaF3) it was under 50 nM; on VEGFR-2 kinase, at most 50 nM.
For the compound `CCn1cc(C(=O)Nc2ccc(Oc3ccnc4cc(OC)c5c(c34)OCCO5)c(F)c2)c(=O)n(-c2ccc(F)cc2)c1=O` [Example 37, N-(3-fluoro-4-((5-methoxy-2,3-dihydro-[1,4]dioxino[2,3-f]quinolin-10-yl)oxy)phenyl)-3-(4-fluorophenyl)-1-ethyl-2,4-dioxo-1,2,3,4-tetrahydropyrimidine-5-carboxamide], the IC50 was under 50 nM against TRKA kinase; under 50 nM in the assay on Ba/F3 LMNA-NTRK1 cells (Mus musculus, BaF3); 50 to 500 nM on VEGFR-2 kinase.

The IC50 is the midpoint of a concentration-inhibition curve.
